Patent US10106540B2, “HDAC6 inhibitors and their uses” (Universität Regensburg, priority 2014, dated 2018)

Legend:
HEL leukemic cells = assay: Western blot analysis in HEL leukemic cells (JAK2 V617F); type: cell-based, human; details: for concentration with about the same potency in hyperacetylation of tubulin-α: 24 h, Western blot
Description: Human leukemia cell line HEL with JAK2 V617F mutation (DSMZ Accession No: ACC-11).
(§1) The assay is carried out as described in Buchwald et al. 2010 and Buchwald et al. 2013. Briefly, cells were collected and lysed in NET-N buffer (150 mM NaCl, 1 mM EDTA, 50 mM Tris-HCl (pH 7.8), 0.5% Nonidet P-40 (NP-40), 1 mM phenylmethylsulfonyl fluoride, 0.5 mg/ml leupeptin and 0.5 mg/ml pepstatin) followed by mild sonification on ice. Protein lysate ([…]) was boiled in Laemmli buffer and separated on SDS-polyacrylamide gel electrophoresis for western blotting with specific antibodies. All lysates were assessed by Bradford assay for protein concentrations.

HCT-116 cells = assay: Western blot analysis in HCT-116 colon cancer cells; type: cell-based, human; details: HCT-116 cells, 24 h
Description: FIG. 5. Various cancer cells were treated for 24 h as shown and tested by Western blot analysis. […] Human colon cancer cell lines RKO (ATCC Accession No: CRL-2577) and HCT-116 (DSMZ Accession No: ACC-581). Western Blot Analysis a […] Protein lysate ([…]) was boiled in Laemmli buffer and separated on SDS-polyacrylamide gel electrophoresis for western blotting with specific antibodies. All lysates were assessed by Bradford assay for protein concentrations.

BV-173 cells [1] = assay: Western blot analysis in BV-173 cells; type: cell-based, human; details: for acetylation of histone H3: BV-173, 1 μM MARB1, 2 μM MARB2 or 2 mM VPA
Description: BV-173 cells (BCR-ABL positive leukemic cells) were used as control cells left (Ctl) or with 1 μM MARB1, 2 μM MARB2 or 2 mM VPA treated for 24 h. These concentrations were chosen to achieve equipotent effects on cells which was in preliminary tests (data not shown). Shown are acetylated tubulin-α, α-tubulin, acetylated histone H3, WT1, survivin and β-actin. The total amount of α-tubulin and β-actin were used as loading control. Mr, relative molecular weight in kilodaltons. The degradation of WT1 in patients treated with VPA cells bases on a loss of WT1 mRNA and the increased degradation of WT1 protein by induction of the E2 ubiquitin conjugase UbcH8.
(§2) Flow cytometric analysis of the induction of (A) apoptotic DNA fragmentation and (B) Cell cycle analysis of BV 173 cells. The cells were kept as control cells (Ctl), treated with 1 μM or 2 μM MARB1 MARB2 and 0.2 or 0.5 μM imatinib for 48 h. The data was received by two independent experiments. The individual compounds show only slight effects in the used concentrations; whereas their combination can effectively kill leukemic cells. (C) Western blot analysis on data from the BCR-ABL, acetylated tubulin and α-sliced PARP1; the total amount of tubulin-α serves as a loading control. BV-173 cells were treated for 24 h with 1 μM, or 2 μM MARB1 or MARB2.
(§3) Human leukemia cell lines BV 173 and K562 with BCR-ABL mutation (Leibniz Institute DSMZ—German Collection of Microorganisms and Cell Cultures, DSMZ Accession Nos: ACC-20 and ACC-10).
as §1

UXF 1138 = assay: In vitro activity against solid tumor cell lines (FACS analysis method a); type: cell-based; details: Homo sapiens, Uterus
Description: Human uterus cancer cell line UXF 1138 (Oncotest GmbH, Freiburg, Germany)
(§4) The assay is carried out as described in Pietschmann et al., 2012 and Brandl et al. 2012. Briefly, 10^5 cells were fixed in 1 ml 70% EtOH with 0.05% Tween-20 overnight at 4° C. The following day, cells were washed with 3 ml 38 mM sodium citrate, pH 7.4, and incubated for 20 min at 37° C. in 0.5 ml 38 mM sodium citrate, pH 7.4, supplemented with 50 μg/ml propidium iodide and 10 μg/ml RNase-A. DNA contents of the cells were measured by fluorescence-activated cell sorter (FACS). This method allows detection of the apoptotic subG1-fraction, which has a DNA content below 2n due to apoptotic cleavage of DNA. Equally, the cell cycle profile can be assessed with this method.
(§5) The novel HDAC6 inhibitors were tested in a panel of tumor cell lines for cytostatic/toxic activities (see Table 2).

RKO cells = assay: Western blot analysis in RKO colorectal cancer cells; type: cell-based, human
Description: FIG. 5. Various cancer cells were treated for 24 h as shown and tested by Western blot analysis.
(D) Inhibition of HDAC6 protects it from degradation by the addition of a pro-apoptotic agent (staurosporine, ST).
The total amount of vinculin serves as a loading control; Proof of tubulin acetylation serves as proof of the treatment accuracy. The loss of the caspase-3 corresponds to the induction of apoptosis (programmed cell death).
Human colon cancer cell lines RKO (ATCC Accession No: CRL-2577) and HCT-116 (DSMZ Accession No: ACC-581).
as §1

[2] = test system: 42 solid tumor cell lines; assay: In vitro activity against solid tumor cell lines, mean of all lines; type: cell-based; details: average IC50 value from all 42 measurements
BV-173 cells [3] = assay: Flow cytometric analysis of BV-173 cells, combination with imatinib; type: cell-based, human; details: BV-173, 1 μM MARB1 or 2 μM MARB2 combined with 0.2 or 0.5 μM imatinib, 48 h
Description: as §2, §3
as §4, with “This method allows detection of the apoptotic subG1-fraction, which has a DNA content below 2n due to apoptotic cleavage of DNA.” left out

PRXF LNCaP = assay: In vitro activity against solid tumor cell lines (FACS analysis method a); type: cell-based; details: Homo sapiens, Prostate
Description: (§6) Human prostate cancer cell lines PRXF DU-145, PRXF LNCaP, PRXF PC-3M (Oncotest GmbH, Freiburg, Germany)
as §4, §5

PRXF PC-3M = assay: as above; type: cell-based; details: Homo sapiens, Prostate
Description: as §6, §4, §5

PRXF DU-145 = assay: as above; type: cell-based; details: Homo sapiens, Prostate
Description: as §6, §4, §5

MAXF MCF-7 = assay: as above; type: cell-based; details: Homo sapiens, MCF7, Breast
Description: (§7) Human breast cancer cell lines MAXF 401 and MAXF MCF-7 (Oncotest GmbH, Freiburg, Germany)
as §4, §5

MAXF 401 = assay: as above; type: cell-based; details: Homo sapiens, MAXF401, Breast
Description: as §7, §4, §5

[4] = BV-173, 1 μM MARB1, 2 μM MARB2, 24 h

## Cc1[nH]c2ccccc2c1CCNCc1ccc(/C=C/C(=O)NO)cc1 [LBH589, reference compound]
HEL leukemic cells; compared to other inhibitors
  acetylation of tubulin-α: decreased acetylation of tubulin-α
HCT-116 cells
  tubulin acetylation and degradation: degradation of tubulin

## CCCC(CCC)C(=O)O [VPA, reference compound]
BV-173 cells [1]; 24 h
  acetylation of histone H3: induces hyperacetylation of histone H3

## CN1CC(=O)N2Cc3c(c4ccccc4n3Cc3ccc(C(=O)NO)cc3)C(C2)C1=O (stereo not drawn) [MARB2, N-Hydroxy-4-((5-methyl-3,6-dioxo-4,5,6,7-tetrahydro-1H-2,7-methano[1,4]diazonino[6,7-b]indol-12(3H)-yl)methyl)benzamide]
BV-173 cells [1]; [4]
  acetylation of tubulin-α: hyperacetylation of tubulin-α
  expression of survivin: reduction of the expression of survivin
BV-173 cells [1]; 24 h
  acetylation of histone H3: Neither MARB1, nor MARB2 cause these alterations
BV-173 cells [1]; BV-173, compound alone, 24 h
  BCR-ABL expression on the protein level: do not affect
BV-173 cells [1]; BV-173, with imatinib, 24 h
  BCR-ABL stabilization/degradation in combination with imatinib: significantly inhibit the unwanted stabilization of BCR-ABL
HEL leukemic cells
  concentration with about the same potency in hyperacetylation of tubulin-α: ~2 µM
UXF 1138
  IC50: 5.49 µM
RKO cells; 0.5 μM, 24 h
  hyperacetylation of tubulin: sufficient to induce hyperacetylation of tubulin
RKO cells; with staurosporine
  HDAC6 loss in staurosporin (ST)-treated cells: protects ST-treated RKO cells
[2]
  IC50: 16.4 µM
BV-173 cells [3]
  apoptotic and necrotic sub-G1 populations: significantly increases
HCT-116 cells
  tubulin acetylation and degradation: starts the hyperacetylation of tubulin in colon carcinoma cells (RKO and HCT-116 cells) without destroying it
PRXF LNCaP
  IC50: 4.8 µM
PRXF PC-3M
  IC50: 20.8 µM
PRXF DU-145
  IC50: 10.3 µM
MAXF MCF-7
  IC50: 7.69 µM
MAXF 401
  IC50: 13.7 µM

## CN1CCc2c(c3ccccc3n2Cc2ccc(C(=O)NO)cc2)C1 [tubastatin A, reference compound]
HEL leukemic cells
  concentration with about the same potency in hyperacetylation of tubulin-α: ~5 µM
